Like-named read-outs stand apart in the source and are kept apart here.
How the values were obtained:
[1] = system: Erysiphe graminis f.sp. tritici; assay: Erysiphe graminis f.sp. tritici (wheat powdery mildew) leaf disk assay; assay type: in vivo; settings: Blumeria graminis, foliar, 96 h, preventive, four days after inoculation, read-out: control of fungal infection, Erysiphe graminis fsp. tritici
Tetranychus urticae = settings: foliar, 192 h, read-out: control of Tetranychus urticae
Pyricularia oryzae = assay: whole plant or invertebrate; assay type: in vivo; settings: foliar, 96 h
Aedes aegypti = Aedes aegypti (Yellow fever mosquito) larvae test; assay type: in vivo; settings: 48 h
[2] = system: Puccinia recondita f.sp. tritici; assay: Puccinia recondita f.sp. tritici (wheat brown rust) leaf disk assay; assay type: in vivo; settings: foliar, 216 h, preventive, nine days after inoculation, read-out: control of fungal infection, Puccinia recondita f.sp. tritici
Phytophthora infestans = assay: whole plant or invertebrate; assay type: in vivo; settings: foliar, 96 h, read-out: control of fungal infection, Phytophthora infestans
Plasmopara viticola = Plasmopara viticola (downy mildew of grapevine) leaf disk assay; assay type: in vivo; settings: foliar, 168 h, preventive, seven days after inoculation, read-out: control of fungal infection, Plasmopara viticola
Plutella xylostella = Plutella xylostella (Diamond back moth) artificial diet test; settings: 120 h, read-out: control of Plutella xylostella
Heliothis virescens = Heliothis virescens (Tobacco budworm) egg test on artificial diet; settings: 96 h, read-out: control of Heliothis virescens
[3] = read-out: control of fungal infection, Pyricularia oryzae (at least 60% list)
[4] = read-out: control of fungal infection, Pyricularia oryzae (at least 80% list)

CCc1ncnc(N2[C@@H]3CC[C@H]2CC(Oc2nc(Br)ccc2Cl)C3)c1Cl (stereo partly shown) [Example 1.167]
pest or weed control at 200 ppm [1]: ≥ 80%
pest or weed control at 200 ppm (Tetranychus urticae): ≥ 80%

Cc1nn(C)c2nccc(N3[C@@H]4CC[C@H]3CC(Oc3ncc(Cl)cc3F)C4)c12 (stereo partly shown) [Example 1.252]
pest or weed control at 200 ppm [1]: ≥ 80%
pest or weed control at 200 ppm (Pyricularia oryzae; [3]): ≥ 60%
melting point: 112 °C

N#Cc1ccc(OC2C[C@H]3CC[C@@H](C2)N3c2ncnc3sccc23)cc1F (stereo partly shown) [Example 1.259]
pest or weed control at 2 ppm (Aedes aegypti): ≥ 80%
pest or weed control at 200 ppm [2]: ≥ 80%
pest or weed control at 200 ppm (Tetranychus urticae): ≥ 80%

CCC(=O)c1ccc(OC2C[C@H]3CC[C@@H](C2)N3c2ncnc3sccc23)cc1 (stereo partly shown) [Example 2.37]
pest or weed control at 200 ppm [1]: ≥ 80%
pest or weed control at 200 ppm (Tetranychus urticae): ≥ 80%

FC(F)(F)c1ccnc(OC2C[C@H]3CC[C@@H](C2)N3c2ncnc3sccc23)c1 (stereo partly shown) [Example 2.51]
pest or weed control at 200 ppm (Pyricularia oryzae; [3]): ≥ 60%
melting point: 172 °C

O=C1c2ccccc2C(=O)N1OC1C[C@H]2CC[C@@H](C1)N2c1ncnc2sccc12 (stereo partly shown) [Example 2.64]
pest or weed control at 200 ppm [2]: ≥ 80%
pest or weed control at 200 ppm (Pyricularia oryzae; [3]): ≥ 60%
pest or weed control at 200 ppm (Pyricularia oryzae; [4]): ≥ 80%
melting point: 190 °C

CCC(=O)c1cc(F)c(OC2C[C@H]3CC[C@@H](C2)N3c2ncnc3sccc23)c(F)c1 (stereo partly shown) [Example 2.66]
pest or weed control at 2 ppm (Aedes aegypti): ≥ 80%
pest or weed control at 200 ppm [1]: ≥ 80%
pest or weed control at 200 ppm (Phytophthora infestans): ≥ 80%
pest or weed control at 200 ppm (Plasmopara viticola): ≥ 80%
pest or weed control at 200 ppm (Plutella xylostella): ≥ 80%
pest or weed control at 200 ppm (Tetranychus urticae): ≥ 80%

Cc1csc2ncnc(N3[C@@H]4CC[C@H]3CC(Oc3ccc(C(F)(F)F)cn3)C4)c12 (stereo partly shown) [Example 2.71]
pest or weed control at 2 ppm (Aedes aegypti): ≥ 80%
pest or weed control at 200 ppm [1]: ≥ 80%
pest or weed control at 200 ppm (Pyricularia oryzae; [3]): ≥ 60%
pest or weed control at 200 ppm (Plasmopara viticola): ≥ 80%
pest or weed control at 200 ppm (Tetranychus urticae): ≥ 80%

FC(F)(F)c1ccnc(OC2C[C@H]3CC[C@@H](C2)N3c2ccncn2)c1 (stereo partly shown) [Example 2.87]
pest or weed control at 200 ppm (Pyricularia oryzae; [3]): ≥ 60%
melting point: 108 °C

Cc1cc(N2[C@@H]3CC[C@H]2CC(Oc2cccc(C(F)(F)F)n2)C3)n2ncnc2n1 (stereo partly shown) [Example 2.101]
pest or weed control at 200 ppm (Plasmopara viticola): ≥ 80%
melting point: 212 °C

Cc1cc(N2[C@@H]3CC[C@H]2CC(Oc2ccc(C(F)(F)F)cn2)C3)n2ncnc2n1 (stereo partly shown) [Example 2.139]
pest or weed control at 200 ppm [1]: ≥ 80%
pest or weed control at 200 ppm (Pyricularia oryzae; [3]): ≥ 60%
melting point: 240 °C

COCc1ncnc(N2[C@@H]3CC[C@H]2CC(Oc2ccc(C(F)(F)F)cn2)C3)c1OC (stereo partly shown) [Example 2.167]
pest or weed control at 200 ppm [1]: ≥ 80%
pest or weed control at 200 ppm (Heliothis virescens): ≥ 80%

Cc1nn(C)c2nccc(N3[C@@H]4CC[C@H]3CC(Oc3ccc(C(F)(F)F)cn3)C4)c12 (stereo partly shown) [Example 2.194]
pest or weed control at 200 ppm (Tetranychus urticae): ≥ 80%

FC(F)(F)c1ccc(OC2C[C@H]3CC[C@@H](C2)N3c2ccnc3c(Cl)cccc23)nc1 (stereo partly shown) [Example 2.206]
pest or weed control at 200 ppm (Pyricularia oryzae; [3]): ≥ 60%
pest or weed control at 200 ppm (Plasmopara viticola): ≥ 80%
pest or weed control at 200 ppm (Tetranychus urticae): ≥ 80%

Cn1nc(C(F)(F)F)cc1C(=O)N1[C@@H]2CC[C@H]1CC(Oc1ccc(C(F)(F)F)cn1)C2 (stereo partly shown) [Example 2.222]
pest or weed control at 200 ppm [1]: ≥ 80%
pest or weed control at 200 ppm (Heliothis virescens): ≥ 80%

CCc1ncnc(N2C3CCC2CC(=Cc2ccccc2)C3)c1Cl [Example 3.6]
pest or weed control at 2 ppm (Aedes aegypti): ≥ 80%
pest or weed control at 200 ppm (Pyricularia oryzae; [3]): ≥ 60%
pest or weed control at 200 ppm (Phytophthora infestans): ≥ 80%
pest or weed control at 200 ppm (Plutella xylostella): ≥ 80%
pest or weed control at 200 ppm (Tetranychus urticae): ≥ 80%

CCOC(=O)C=C1CC2CCC(C1)N2c1ncnc2sccc12 [Example 3.34]
pest or weed control at 200 ppm [2]: ≥ 80%
pest or weed control at 200 ppm (Pyricularia oryzae; [3]): ≥ 60%
pest or weed control at 200 ppm (Pyricularia oryzae; [4]): ≥ 80%
pest or weed control at 200 ppm (Plasmopara viticola): ≥ 80%
melting point: 101 °C

CCc1ncnc(N2C3CCC2CC(=NOCc2ccc(C(C)C)cc2)C3)c1Cl [Example 5.20]
pest or weed control at 200 ppm [1]: ≥ 80%
pest or weed control at 200 ppm [2]: ≥ 80%
pest or weed control at 200 ppm (Plasmopara viticola): ≥ 80%
pest or weed control at 200 ppm (Tetranychus urticae): ≥ 80%

CCc1ncnc(N2C3CCC2CC(=NOCc2ccc(-c4ccccc4)cc2)C3)c1Cl [Example 5.22]
pest or weed control at 200 ppm [1]: ≥ 80%
pest or weed control at 200 ppm [2]: ≥ 80%
pest or weed control at 200 ppm (Tetranychus urticae): ≥ 80%

CCc1ncnc(N2C3CCC2CC(=NOCc2ccc(OC(F)(F)F)cc2)C3)c1Cl [Example 5.66]
pest or weed control at 200 ppm [1]: ≥ 80%
pest or weed control at 200 ppm [2]: ≥ 80%
pest or weed control at 200 ppm (Plutella xylostella): ≥ 80%
pest or weed control at 200 ppm (Tetranychus urticae): ≥ 80%

CCc1ncnc(N2C3CCC2CC(=NOCc2ccc(C(F)(F)F)c(F)c2)C3)c1Cl [Example 5.86]
pest or weed control at 200 ppm [2]: ≥ 80%
pest or weed control at 200 ppm (Pyricularia oryzae; [4]): ≥ 80%
pest or weed control at 200 ppm (Tetranychus urticae): ≥ 80%

CCc1ncnc(N2C3CCC2CC(=NOCc2ccc(SC(F)(F)F)cc2)C3)c1Cl [Example 5.99]
pest or weed control at 200 ppm [1]: ≥ 80%
pest or weed control at 200 ppm [2]: ≥ 80%
pest or weed control at 200 ppm (Tetranychus urticae): ≥ 80%

c1ccc2cc(CON=C3CC4CCC(C3)N4c3ncnc4sccc34)ccc2c1 [Example 5.147]
pest or weed control at 2 ppm (Aedes aegypti): ≥ 80%
pest or weed control at 200 ppm [1]: ≥ 80%
pest or weed control at 200 ppm [2]: ≥ 80%
pest or weed control at 200 ppm (Phytophthora infestans): ≥ 80%
pest or weed control at 200 ppm (Plutella xylostella): ≥ 80%
pest or weed control at 200 ppm (Tetranychus urticae): ≥ 80%

CCc1ccc(CON=C2CC3CCC(C2)N3c2ncnc3sccc23)cc1 [Example 5.151]
pest or weed control at 2 ppm (Aedes aegypti): ≥ 80%
pest or weed control at 200 ppm [1]: ≥ 80%
pest or weed control at 200 ppm [2]: ≥ 80%
pest or weed control at 200 ppm (Pyricularia oryzae; [4]): ≥ 80%
pest or weed control at 200 ppm (Phytophthora infestans): ≥ 80%
pest or weed control at 200 ppm (Plasmopara viticola): ≥ 80%
pest or weed control at 200 ppm (Tetranychus urticae): ≥ 80%

FC(F)(F)c1ccc(CON=C2CC3CCC(C2)N3c2ncnc3sccc23)cc1 [Example 5.160]
pest or weed control at 2 ppm (Aedes aegypti): ≥ 80%
pest or weed control at 200 ppm [1]: ≥ 80%
pest or weed control at 200 ppm [2]: ≥ 80%
pest or weed control at 200 ppm (Pyricularia oryzae; [4]): ≥ 80%
pest or weed control at 200 ppm (Phytophthora infestans): ≥ 80%
pest or weed control at 200 ppm (Plasmopara viticola): ≥ 80%
pest or weed control at 200 ppm (Plutella xylostella): ≥ 80%
pest or weed control at 200 ppm (Tetranychus urticae): ≥ 80%

CC(C)(C)c1ccc(CON=C2CC3CCC(C2)N3c2ncnc3sccc23)cc1 [Example 5.167]
pest or weed control at 200 ppm [1]: ≥ 80%
pest or weed control at 200 ppm [2]: ≥ 80%
pest or weed control at 200 ppm (Tetranychus urticae): ≥ 80%

FC(F)(F)c1ccc(ON=C2CC3CCC(C2)N3c2ncnc3sccc23)nc1 [Example 5.170]
pest or weed control at 200 ppm [1]: ≥ 80%
pest or weed control at 200 ppm [2]: ≥ 80%
pest or weed control at 200 ppm (Pyricularia oryzae; [3]): ≥ 60%
pest or weed control at 200 ppm (Tetranychus urticae): ≥ 80%

Cc1ccc(CON=C2CC3CCC(C2)N3c2ncnc3sccc23)cc1C [Example 5.179]
pest or weed control at 2 ppm (Aedes aegypti): ≥ 80%
pest or weed control at 200 ppm [1]: ≥ 80%
pest or weed control at 200 ppm [2]: ≥ 80%
pest or weed control at 200 ppm (Pyricularia oryzae; [3]): ≥ 60%
pest or weed control at 200 ppm (Plutella xylostella): ≥ 80%
pest or weed control at 200 ppm (Tetranychus urticae): ≥ 80%

Fc1ccc(CON=C2CC3CCC(C2)N3c2ncnc3sccc23)c(Cl)c1 [Example 5.192]
pest or weed control at 2 ppm (Aedes aegypti): ≥ 80%
pest or weed control at 200 ppm (Pyricularia oryzae; [3]): ≥ 60%
pest or weed control at 200 ppm (Plutella xylostella): ≥ 80%
pest or weed control at 200 ppm (Tetranychus urticae): ≥ 80%

FC(F)(F)c1cnc(ON=C2CC3CCC(C2)N3c2ncnc3sccc23)c(Cl)c1 [Example 5.207]
pest or weed control at 200 ppm [1]: ≥ 80%
pest or weed control at 200 ppm [2]: ≥ 80%
pest or weed control at 200 ppm (Pyricularia oryzae; [3]): ≥ 60%
melting point: 156 °C

FC(F)(F)Oc1ccc(CON=C2CC3CCC(C2)N3c2ncnc3sccc23)cc1 [Example 5.210]
pest or weed control at 2 ppm (Aedes aegypti): ≥ 80%
pest or weed control at 200 ppm [1]: ≥ 80%
pest or weed control at 200 ppm [2]: ≥ 80%
pest or weed control at 200 ppm (Phytophthora infestans): ≥ 80%
pest or weed control at 200 ppm (Plutella xylostella): ≥ 80%
pest or weed control at 200 ppm (Tetranychus urticae): ≥ 80%

Fc1c(Cl)cccc1CON=C1CC2CCC(C1)N2c1ncnc2sccc12 [Example 5.217]
pest or weed control at 2 ppm (Aedes aegypti): ≥ 80%
pest or weed control at 200 ppm [1]: ≥ 80%
pest or weed control at 200 ppm [2]: ≥ 80%
pest or weed control at 200 ppm (Pyricularia oryzae; [3]): ≥ 60%
pest or weed control at 200 ppm (Pyricularia oryzae; [4]): ≥ 80%
pest or weed control at 200 ppm (Plutella xylostella): ≥ 80%
pest or weed control at 200 ppm (Tetranychus urticae): ≥ 80%

Fc1cc(F)c(CON=C2CC3CCC(C2)N3c2ncnc3sccc23)cc1F [Example 5.226]
pest or weed control at 200 ppm [1]: ≥ 80%
pest or weed control at 200 ppm [2]: ≥ 80%
melting point: 106 °C

Fc1ccc(F)c(CON=C2CC3CCC(C2)N3c2ncnc3sccc23)c1F [Example 5.228]
pest or weed control at 2 ppm (Aedes aegypti): ≥ 80%
pest or weed control at 200 ppm [1]: ≥ 80%
pest or weed control at 200 ppm [2]: ≥ 80%
pest or weed control at 200 ppm (Pyricularia oryzae; [3]): ≥ 60%
pest or weed control at 200 ppm (Phytophthora infestans): ≥ 80%
pest or weed control at 200 ppm (Plasmopara viticola): ≥ 80%
pest or weed control at 200 ppm (Plutella xylostella): ≥ 80%
pest or weed control at 200 ppm (Tetranychus urticae): ≥ 80%

FC(F)(F)c1ccc(-c2nc(CON=C3CC4CCC(C3)N4c3ncnc4sccc34)no2)cc1 [Example 5.260]
pest or weed control at 200 ppm [1]: ≥ 80%
pest or weed control at 200 ppm [2]: ≥ 80%
pest or weed control at 200 ppm (Tetranychus urticae): ≥ 80%

CCCC1COC2(CC3CCC(C2)N3c2ncnc3sccc23)O1 (stereo not shown) [Example 6.10]
pest or weed control at 2 ppm (Aedes aegypti): ≥ 80%
pest or weed control at 200 ppm [1]: ≥ 80%
pest or weed control at 200 ppm [2]: ≥ 80%
pest or weed control at 200 ppm (Pyricularia oryzae; [4]): ≥ 80%
pest or weed control at 200 ppm (Plasmopara viticola): ≥ 80%
pest or weed control at 200 ppm (Plutella xylostella): ≥ 80%
pest or weed control at 200 ppm (Tetranychus urticae): ≥ 80%

N#CCC1CC2CCC(C1)N2c1ncnc2sccc12 (stereo not shown) [Example 7.1]
pest or weed control at 200 ppm (Tetranychus urticae): ≥ 80%

CCc1ncnc(N2C3CCC2CC(O)(CC#C[Si](C)(C)C)C3)c1Cl (stereo not shown) [Example 7.34]
pest or weed control at 200 ppm (Pyricularia oryzae; [3]): ≥ 60%
melting point: 85 °C

Source: patent US20100331348A1, “TROPANE DERIVATIVES USEFUL AS PESTICIDES” (SYNGENTA CROP PROTECTION, INC., priority 2007, published 2010)
